This note sets out measurements from PubChem BioAssay (NCI).

Some test systems named below: HOP-92 NSCLC; HT29 colon; MCF7 breast; OVCAR-8 ovarian; A498 renal; K-562 leukemia; MALME-3M melanoma; NCI-H23 lung; OVCAR-3 ovarian; HCT-116 colon.
Experiment in all cases: NCI anticancer screen, dose series, 48 h

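Five concentrations, 48 hours, 96-well plates. GI50: concentration for 50% inhibition of growth. TGI: total growth inhibition.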

Regarding `Cc1cc2nc(C(Cl)Cl)nc(-c3ccccc3)n2n1`, the GI50 in the experiment on HOP-92 NSCLC is 2430 nM; in the experiment with HT29 colon, 2770 nM; in the experiment on MCF7 breast it was 4060 nM; in the experiment with OVCAR-8 ovarian it was 5060 nM; in the experiment with A498 renal, 2600 nM; in the experiment with K-562 leukemia it was 4610 nM. The GI50 in the experiment on MALME-3M melanoma is 9110 nM; in the experiment on NCI-H23 lung it was 3060 nM; with OVCAR-3 ovarian it was 2110 nM; in the experiment with HCT-116 colon it was 3450 nM. In addition, the TGI in the experiment on HOP-92 NSCLC was 12.2 µM; in the experiment with HT29 colon, 13.9 µM; in the experiment on MCF7 breast, more than 100 µM; in the experiment with OVCAR-8 ovarian, more than 100 µM; in the experiment with A498 renal, 11.2 µM; with K-562 leukemia, more than 100 µM. Also, the TGI in the experiment with MALME-3M melanoma turned out to be 28.1 µM; in the experiment on NCI-H23 lung, 10.9 µM; in the experiment on OVCAR-3 ovarian, 4.53 µM; in the experiment with HCT-116 colon, 24 µM.
With `Cc1cc(N(CCOS(C)(=O)=O)CCOS(C)(=O)=O)ccc1C=Nc1ccc(-c2csc(-c3ccc(Br)cc3)n2)cc1`, the TGI in the experiment with HOP-92 NSCLC is 38.3 µM; in the experiment on HT29 colon, 44.6 µM; in the experiment on MCF7 breast, 43.8 µM; with OVCAR-8 ovarian, 61.6 µM; with A498 renal, 6.4 µM; in the experiment with K-562 leukemia, more than 97.1 µM. Moreover, the TGI is 67.2 µM in the experiment on MALME-3M melanoma, 41.7 µM in the experiment on NCI-H23 lung, 44.3 µM in the experiment on OVCAR-3 ovarian and more than 87.9 µM with HCT-116 colon.
With `Nc1ccc(-c2ccc(-c3nc4cc(Cl)c(Cl)cc4[nH]3)cc2)cc1`, the GI50 is 23000 nM in the experiment on HOP-92 NSCLC; 1420 nM with HT29 colon; 377 nM with MCF7 breast; 14500 nM in the experiment with OVCAR-8 ovarian; 18000 nM with A498 renal; 4320 nM with K-562 leukemia. In addition, the GI50 with MALME-3M melanoma is 8020 nM; in the experiment on NCI-H23 lung it was 20100 nM; in the experiment with OVCAR-3 ovarian, 944 nM; with HCT-116 colon it was 503 nM. Moreover, the TGI in the experiment on HOP-92 NSCLC is 65 µM; in the experiment with HT29 colon it was more than 100 µM; with MCF7 breast, more than 100 µM; with OVCAR-8 ovarian, more than 92.9 µM; in the experiment on A498 renal, more than 70.7 µM; in the experiment on K-562 leukemia, more than 100 µM. The TGI with MALME-3M melanoma is more than 63.4 µM; in the experiment on NCI-H23 lung, more than 100 µM; in the experiment on HCT-116 colon, more than 100 µM.
For the molecule `Cn1sc2ccccc2c1=S`, the TGI was determined as 36.1 µM in the experiment with HOP-92 NSCLC; 23.3 µM in the experiment on HT29 colon; 7.36 µM in the experiment on MCF7 breast; 22.3 µM in the experiment on OVCAR-8 ovarian; 99 µM in the experiment with A498 renal; 26.1 µM with K-562 leukemia. Further, the TGI is 22.9 µM in the experiment on MALME-3M melanoma, 34.7 µM with NCI-H23 lung, 10.5 µM in the experiment with OVCAR-3 ovarian and 13.3 µM with HCT-116 colon.
On to `O=C(O)CCSC(=S)Nc1ccc([N+](=O)[O-])cc1`, for which the TGI with HOP-92 NSCLC was 68.9 µM; in the experiment on HT29 colon, more than 100 µM; with MCF7 breast, more than 100 µM; with OVCAR-8 ovarian, more than 100 µM; with A498 renal, more than 100 µM; in the experiment with K-562 leukemia, more than 63 µM. For the same molecule, the TGI in the experiment on MALME-3M melanoma is more than 100 µM; with NCI-H23 lung it was more than 100 µM; in the experiment with OVCAR-3 ovarian, more than 87.8 µM; in the experiment on HCT-116 colon it was more than 100 µM.
As to `CCN1CCN(c2ccc(Nc3ncc4ccc5ncn(C(C)C)c5c4n3)nc2)CC1`, the GI50 in the experiment on HOP-92 NSCLC is 155 nM; in the experiment with HT29 colon, 48.9 nM; in the experiment with MCF7 breast, less than 10.9 nM; in the experiment on OVCAR-8 ovarian, 311 nM; with A498 renal, less than 33.7 nM; with K-562 leukemia, 132 nM. For the same molecule, the GI50 in the experiment with MALME-3M melanoma was 134 nM; in the experiment on NCI-H23 lung it was 211 nM; in the experiment on OVCAR-3 ovarian, 192 nM; in the experiment on HCT-116 colon it was 31.2 nM. Further, the TGI in the experiment on HOP-92 NSCLC is 0.474 µM; with HT29 colon, 15.5 µM; with MCF7 breast it was 0.848 µM; with OVCAR-8 ovarian it was 16.3 µM; in the experiment on A498 renal it was 0.241 µM; with MALME-3M melanoma it was 1.69 µM. The TGI was found to be 0.85 µM with NCI-H23 lung, 0.523 µM with OVCAR-3 ovarian and 0.55 µM in the experiment on HCT-116 colon.
As for `COc1cc2c3c(n(CCCN4CCCC(O)C4)c(=O)c2cc1OC)-c1cc2c(cc1C3=O)OCO2` (configuration not stated), the GI50 was 31.2 nM in the experiment with HOP-92 NSCLC; 731 nM with HT29 colon; 10.7 nM in the experiment with MCF7 breast; 587 nM in the experiment on OVCAR-8 ovarian; 7730 nM in the experiment with A498 renal; 88.1 nM with K-562 leukemia. Also, the GI50 is 5710 nM with MALME-3M melanoma, 42.1 nM with NCI-H23 lung, 2140 nM in the experiment with OVCAR-3 ovarian and 15.7 nM in the experiment with HCT-116 colon. The TGI in the experiment with HOP-92 NSCLC stood at 0.901 µM; in the experiment with HT29 colon, 9.94 µM; in the experiment on MCF7 breast, 1.31 µM; in the experiment with OVCAR-8 ovarian it was 1.45 µM; with A498 renal it was 25.1 µM; with K-562 leukemia it was 6.87 µM. Besides, the TGI with MALME-3M melanoma was 14.8 µM; with NCI-H23 lung, 0.775 µM; in the experiment on OVCAR-3 ovarian it was 4.71 µM; in the experiment on HCT-116 colon it was 0.925 µM.
For the molecule `O=S(=O)(CCCCl)SCCCCl`, the TGI in the experiment with HOP-92 NSCLC is 78.3 µM; with HT29 colon it was 62.5 µM; in the experiment on MCF7 breast, 52.5 µM; in the experiment with OVCAR-8 ovarian it was 18 µM; with A498 renal it was more than 100 µM; in the experiment with K-562 leukemia, 47.5 µM. The TGI in the experiment with MALME-3M melanoma was more than 83.8 µM; in the experiment on NCI-H23 lung it was more than 100 µM; with OVCAR-3 ovarian, more than 66.6 µM; in the experiment with HCT-116 colon it was 51.1 µM.
Turning to `Cc1nc2sc(C(=O)Nc3cccc(Br)c3)c(N)c2cc1C(O)c1ccccc1` (configuration not stated), the GI50 in the experiment on HOP-92 NSCLC was 4270 nM; in the experiment with HT29 colon it was 393 nM; in the experiment on MCF7 breast it was 372 nM; in the experiment on OVCAR-8 ovarian, 1420 nM; in the experiment on A498 renal it was 219 nM; in the experiment with K-562 leukemia it was 364 nM. The GI50 is 761 nM in the experiment with MALME-3M melanoma, 1130 nM in the experiment on NCI-H23 lung, 392 nM in the experiment on OVCAR-3 ovarian and 438 nM in the experiment on HCT-116 colon. In addition, the TGI in the experiment on HOP-92 NSCLC is 32.4 µM; in the experiment with HT29 colon it was more than 82.5 µM; in the experiment on MCF7 breast, 17 µM; in the experiment on OVCAR-8 ovarian, 55.1 µM; in the experiment with A498 renal, 0.746 µM; with K-562 leukemia, more than 42.7 µM. For the same molecule, the TGI in the experiment with MALME-3M melanoma is 22.3 µM; in the experiment with NCI-H23 lung, 17.9 µM; in the experiment with OVCAR-3 ovarian, 6.23 µM; with HCT-116 colon, 16.2 µM.
For the molecule `CN1CCN(CC(=O)N2c3cccc4cccc(c34)N(C(=O)CN3CCN(C)CC3)C2c2cn(-c3ccccc3)nc2-c2cccc([N+](=O)[O-])c2)CC1`, the GI50 in the experiment on HOP-92 NSCLC is 1130 nM; in the experiment on HT29 colon, 2190 nM; in the experiment on MCF7 breast, 1750 nM; in the experiment on OVCAR-8 ovarian, 2350 nM; in the experiment on A498 renal it was 1920 nM; in the experiment with K-562 leukemia it was 1220 nM. In addition, the GI50 in the experiment on MALME-3M melanoma is 1850 nM; with NCI-H23 lung, 2130 nM; with OVCAR-3 ovarian it was 1760 nM; with HCT-116 colon, 1650 nM. Besides, the TGI in the experiment on HOP-92 NSCLC amounted to 3.18 µM; with HT29 colon, 5.59 µM; with MCF7 breast, 3.39 µM; in the experiment with OVCAR-8 ovarian it was 5.79 µM; in the experiment on A498 renal it was 3.95 µM; in the experiment with K-562 leukemia, 3.81 µM. For the same molecule, the TGI came out at 3.49 µM with MALME-3M melanoma, 5.45 µM in the experiment with NCI-H23 lung, 3.4 µM in the experiment on OVCAR-3 ovarian and 3.1 µM with HCT-116 colon.
Consider `Oc1c(CN2CCN(c3ccccc3F)CC2)cc(Br)c2cccnc12`, for which the GI50 was 896 nM with HOP-92 NSCLC; 11300 nM with HT29 colon; 473 nM in the experiment with MCF7 breast; 607 nM in the experiment on OVCAR-8 ovarian; 695 nM with A498 renal; 366 nM in the experiment with K-562 leukemia. Also, the GI50 in the experiment with MALME-3M melanoma was 1890 nM; in the experiment on NCI-H23 lung it was 1330 nM; in the experiment on OVCAR-3 ovarian it was 576 nM; in the experiment with HCT-116 colon, 546 nM. The TGI with HOP-92 NSCLC turned out to be 19.8 µM; with HT29 colon, 40.5 µM; with MCF7 breast, 12.1 µM; with OVCAR-8 ovarian, 14.5 µM; with A498 renal it was 9.23 µM; with K-562 leukemia it was 19.6 µM. Moreover, the TGI is 9.46 µM with MALME-3M melanoma, 25.2 µM in the experiment with NCI-H23 lung, 21.2 µM in the experiment on OVCAR-3 ovarian and more than 40.7 µM with HCT-116 colon.
`Cc1ccc(C2=NN(c3ccc(S(N)(=O)=O)cc3)C(c3cn(-c4ccccc4)nc3-c3ccccc3)C2)cc1` (configuration not stated): the GI50 is 3330 nM with HOP-92 NSCLC; 4800 nM in the experiment on HT29 colon; 3190 nM in the experiment with MCF7 breast; 7530 nM in the experiment on OVCAR-8 ovarian; 1840 nM with A498 renal; 3820 nM in the experiment on K-562 leukemia. For the same molecule, the GI50 was 81000 nM in the experiment with MALME-3M melanoma, 14100 nM in the experiment with NCI-H23 lung, 14300 nM in the experiment with OVCAR-3 ovarian and 3070 nM with HCT-116 colon. Moreover, the TGI is 22.2 µM in the experiment with HOP-92 NSCLC; more than 100 µM in the experiment with HT29 colon; more than 100 µM in the experiment on MCF7 breast; more than 100 µM in the experiment with OVCAR-8 ovarian; 5.19 µM in the experiment with A498 renal; more than 100 µM with K-562 leukemia. In addition, the TGI was more than 100 µM with MALME-3M melanoma, more than 100 µM in the experiment on NCI-H23 lung, more than 100 µM in the experiment on OVCAR-3 ovarian and 42 µM in the experiment on HCT-116 colon.
Consider `CCN(CC)CC[n+]1cc2cc(OC)c(OC)cc2c2ccc3cc4c(cc3c21)OCO4`, for which the GI50 in the experiment with HOP-92 NSCLC was 1370 nM; in the experiment on HT29 colon, 321 nM; in the experiment on MCF7 breast it was 317 nM; with OVCAR-8 ovarian, 314 nM; in the experiment on A498 renal, 514 nM; in the experiment with K-562 leukemia it was 288 nM. Besides, the GI50 in the experiment on MALME-3M melanoma is 1100 nM; in the experiment on NCI-H23 lung, 618 nM; in the experiment with OVCAR-3 ovarian, 960 nM; with HCT-116 colon it was 404 nM. Further, the TGI in the experiment on HOP-92 NSCLC was 3.88 µM; in the experiment with HT29 colon, 1.36 µM; in the experiment on MCF7 breast, 2.41 µM; with OVCAR-8 ovarian it was 2.11 µM; with A498 renal, 2.92 µM; in the experiment on MALME-3M melanoma it was 2.5 µM. In addition, the TGI in the experiment on NCI-H23 lung was determined as 2.3 µM; with OVCAR-3 ovarian it was 2.33 µM; in the experiment on HCT-116 colon, 1.66 µM.
